Where a SMILES comes first, the peptide text is derived from it. [ ]: non-standard residue; d: D form. dPhe(4-Cl) = N[C@H](Cc1ccc(Cl)cc1)C(=O)O; d2Nal = N[C@H](Cc1ccc2ccccc2c1)C(=O)O; dCit = NC(=O)NCCC[C@@H](N)C(=O)O; d3Pal = N[C@H](Cc1cccnc1)C(=O)O
System: patients undergoing COS/ART
Assay: Phase II clinical trial of Cetrorelix in controlled ovarian stimulation/superovulation for assisted reproduction (COS/ART)
Assay type: in vivo, human
Settings: for premature LH surge: s.c., patients undergoing COS/ART
Method: The results of a phase II clinical trial are shown in Table I. A total of 235 patients were treated. […] During multiple dosing, the mean days of Cetrorelix application is 6 days. 25 babies were born by the end of May 1996 (7 following multiple doses; 18 following single/dual doses). […] [table] 238 patients were treated with Cetrorelix by subcutaneous injection of Cetrorelix […]-Lyophilisat. 134 patients were treated with multiple doses and 104 patients with single or dual doses. The multiple doses are 0.25 mg/day or higher. The single dose was 3 mg or higher. […] Multiple doses were applied for 3 to a maximum of 10 days dependent on follicular development.

[1] = multiple dose, dose/day, phase II dose finding

## CC(=O)N[C@H](Cc1ccc2ccccc2c1)C(=O)N[C@H](Cc1ccc(Cl)cc1)C(=O)N[C@H](Cc1cccnc1)C(=O)N[C@@H](CO)C(=O)N[C@@H](Cc1ccc(O)cc1)C(=O)N[C@H](CCCNC(N)=O)C(=O)N[C@@H](CC(C)C)C(=O)N[C@@H](CCCNC(=N)N)C(=O)N1CCC[C@H]1C(=O)N[C@H](C)C(N)=O [Cetrorelix] (Ac-[d2Nal][dPhe(4-Cl)][d3Pal]SY[dCit]LRP[dA]-NH2)
FIG. 1
  premature LH surge (FIG. 1, time variation of hormonal levels): absolute prevention of any premature LH surge
All phase II patients, both regimens
  pregnancies obtained (number): 71
By the end of May 1996, all patients
  babies born (number): 25
By the end of May 1996, following multiple doses
  babies born (number): 7
By the end of May 1996, following single/dual doses
  babies born (number): 18
Following multiple doses
  babies born (number): 15
Following single/dual doses
  babies born (number): 29
Multiple dose regimen, of 134 patients
  pregnancies obtained (number): 38
[1]
  minimal effective dose: 0.25 min. effect. dose mg
  no effect dose: 0.10 no effect. dose mg
Multiple doses of 0.25 mg/day or higher
  premature LH surge: No premature LH surge
Single dose of 3 mg or higher
  premature LH surge: No premature LH surge
Single dose regimen (one single injection of 3 mg)
  duration of effect to prevent a premature LH surge: up to 6.5 days
single/dual dosage regimen, of 104 patients
  pregnancies obtained (number): 33

Source: US9107871B2, “LHRH—antagonists in the treatment of fertility disorders” (ZENTARIS IVP GMBH, priority 1996, dated 2015)
